Results reported in patent US10640452B2, “Branched trialkyl quaternary ammonium compounds” (Eastman Chemical Company, priority 2018, dated 2020).

Tests used:
Escherichia coli = experiment: Antimicrobial screening, microplate dilution assay (MIC) and agar spotting (MLC); format: cell-based; conditions: Escherichia coli (Gram neg bacteria); for MIC < 10%: lowest concentration with growth less than 10% of control; for MIC < 10% / MIC < 50%: approx. 24 h, 32° C.; for MIC < 50%: lowest concentration with growth less than 50% of control; for MLC: minimum lethal concentration, absence of growth on agar
Description: (§1) The minimum inhibitory concentration (MIC) and the minimum lethal concentration (MLC) of the chemicals were determined using a microplate dilution assay. Quats were provided as aqueous solutions, while Triclosan and Chloroxylenol were provide as powders which were first dissolved at 5 weight percent in absolute ethanol. A two-fold serial dilution series of each test chemical was prepared in Trypticase Soy Broth at 20% of the standard concentration (TSB20) and in Sabouraud Dextrose Broth at 20% of the standard concentration (SDB20) in 96-well micro-titer plates. A total of 10 dilutions were prepared and four replicate tests were performed for each dilution. […] Control solutions containing only media were included for each plate. Suspensions of Staphylococcus aureus, Escherichia coli, and Candida albicans were prepared from one-day old agar plate cultures in Butterfields Phosphate Diluent to a concentration of approximately 10^7 to 10^8 cells per milliliter. Each test well was inoculated with the diluted culture suspensions at a concentration of 10^3 to 10^4 cells per well and then incubated at 32° C. with shaking at 150 rpm for approximately 24 hours, after which the optical density of each well was determined spectrophotometrically at 600 nm. Wells containing uninoculated media without test chemical were included in each plate as negative controls and, following inoculation, as positive controls.
(§2) Selected wells at or below the MIC were tested for MLC by spotting three microliters from each replicate well onto Trypticase Soy agar for S. aureus and E. coli, or Sabouraud Dextrose agar for C. albicans.

Candida albicans = experiment: as above; format: cell-based; conditions: Candida albicans (yeast); for MIC < 10%: lowest concentration with growth less than 10% of control; for MIC < 10% / MIC < 50%: approx. 24 h, 32° C.; for MIC < 50%: lowest concentration with growth less than 50% of control; for MLC: minimum lethal concentration, absence of growth on agar
Description: as §1, §2

Staphylococcus aureus = experiment: as above; format: cell-based; conditions: Staphylococcus aureus (Gram pos bacteria); for MIC < 10%: lowest concentration with growth less than 10% of control; for MIC < 10% / MIC < 50%: approx. 24 h, 32° C.; for MIC < 50%: lowest concentration with growth less than 50% of control; for MLC: minimum lethal concentration, absence of growth on agar
Description: as §1, §2

[1] = Ready Biodegradability - CO2 Evolution Test OECD 301B
Description: The biodegradability of the branched aldehyde intermediates of Example 2 (4-ethyl-2-methyloctanal) and Example 25 (2,4-diethyl-2-octenal) were determined by the Ready Biodegradability—CO2 Evolution Test—Degradation of test compound according to OECD Guidelines for Testing of Chemicals CO2 Evolution Test 301B.

Biodegradation (%) ([1]; day 0)	Biodegradation (%) ([1]; day 2)	Biodegradation (%) ([1]; day 6)	Biodegradation (%) ([1]; day 7)	Biodegradation (%) ([1]; day 9)	Biodegradation (%) ([1]; day 14)	Biodegradation (%) ([1]; day 19)	Biodegradation (%) ([1]; day 23)	Biodegradation (%) ([1]; day 28)	Biodegradation (%) ([1]; day 29 (first line))	Biodegradation (%) ([1]; day 29 (second line))	SMILES	MIC < 10% (Escherichia coli) [Weight percent]	MIC < 50% (Escherichia coli) [Weight percent]	MLC (Escherichia coli) [Weight percent]	MIC < 10% (Candida albicans) [Weight percent]	MIC < 50% (Candida albicans) [Weight percent]	MLC (Candida albicans) [Weight percent]	MIC < 10% (Staphylococcus aureus) [Weight percent]	MIC < 50% (Staphylococcus aureus) [Weight percent]	MLC (Staphylococcus aureus) [Weight percent]
0	0	15	21	31	47	54	56	57	57	61	CCCCC(CC)CC(C)C=O (stereo not drawn) [Example 2, 4-ethyl-2-methyloctanal]	–	–	–	–	–	–	–	–	–
0	0	0	9	27	48	53	53	55	55	57	CCCCC(CC)CC(C=O)CC (stereo not drawn) [Example 25, 2,4-diethyloctanal]	–	–	–	–	–	–	–	–	–

Second part, the molecule before the results:

SMILES	Biodegradation (%) ([1]; day 0)	Biodegradation (%) ([1]; day 2)	Biodegradation (%) ([1]; day 6)	Biodegradation (%) ([1]; day 7)	Biodegradation (%) ([1]; day 9)	Biodegradation (%) ([1]; day 14)	Biodegradation (%) ([1]; day 19)	Biodegradation (%) ([1]; day 23)	Biodegradation (%) ([1]; day 28)	Biodegradation (%) ([1]; day 29 (first line))	Biodegradation (%) ([1]; day 29 (second line))	MIC < 10% (Escherichia coli) [Weight percent]	MIC < 50% (Escherichia coli) [Weight percent]	MLC (Escherichia coli) [Weight percent]	MIC < 10% (Candida albicans) [Weight percent]	MIC < 50% (Candida albicans) [Weight percent]	MLC (Candida albicans) [Weight percent]	MIC < 10% (Staphylococcus aureus) [Weight percent]	MIC < 50% (Staphylococcus aureus) [Weight percent]	MLC (Staphylococcus aureus) [Weight percent]
CCCCCCCCCCCC[N+](C)(C)Cc1ccccc1.[Cl-] [BAC-12 linear, benzalkonium chloride, C12]	–	–	–	–	–	–	–	–	–	–	–	0.00078	0.00078	0.00078	0.0016	0.00078	0.0016	0.0002	0.0002	0.0002
Oc1cc(Cl)ccc1Oc1ccc(Cl)cc1Cl [Triclosan]	–	–	–	–	–	–	–	–	–	–	–	0.00010	0.00010	0.00010	0.0016	0.0016	>0.0016	0.00002	0.00002	0.00003
CC(=O)[O-].[Na+] [sodium acetate]	0	32	52	54	60	66	69	71	72	74	78	–	–	–	–	–	–	–	–	–
